For one experiment, the target named is Aurora-B (Homo sapiens, UniProt Q96GD4). The experiment in a line: Aurora-B enzyme assay (identical protocol as Aurora-A). It counts as biochemical. The conditions noted are these: IC50 range class; read-out: Inhibitor Activity vs Aurora-B. The method, then:
(§1) The ability of compounds to inhibit Aurora-A activity was measured using a simple microplate assay for Aurora-A activity, also suitable for high-throughput screening. In brief, γ-^33P-ATP and Aurora-A were incubated in a myelin basic protein (MBP)-coated Flashplate® to generate a scintillation signal. The plates were formatted to contain the inhibitor, controls, positive control (staurosporin) and blanks. After incubation at 37° C. for 1 hour and a subsequent wash procedure, the plates were read on a TopCount-NXT™.
(§2) IC50 values were determined by non-linear regression analysis, after fitting the data point results to the equation for sigmoidal dose response with variable slope (% activity against log concentration of compound), using Graphpad Prism software.
The Aurora-B enzyme assay follows the identical protocol as Aurora-A.

The next experiment concerns the target T1, Aurora-A (Homo sapiens, UniProt O14965).
T1 sequence (O14965 1-403): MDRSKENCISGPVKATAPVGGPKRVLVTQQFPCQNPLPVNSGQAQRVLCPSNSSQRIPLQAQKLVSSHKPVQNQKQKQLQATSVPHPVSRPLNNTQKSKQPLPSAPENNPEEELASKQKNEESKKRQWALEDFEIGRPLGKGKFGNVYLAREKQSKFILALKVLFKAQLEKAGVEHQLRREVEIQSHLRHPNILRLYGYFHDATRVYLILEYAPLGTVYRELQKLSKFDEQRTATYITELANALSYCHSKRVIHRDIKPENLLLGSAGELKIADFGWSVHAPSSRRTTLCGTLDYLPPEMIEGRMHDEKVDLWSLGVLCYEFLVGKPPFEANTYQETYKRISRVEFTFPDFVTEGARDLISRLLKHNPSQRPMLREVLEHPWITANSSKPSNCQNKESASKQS
The experiment is described as follows: Aurora-A enzyme assay (MBP-coated Flashplate, γ-33P-ATP). It counts as biochemical. Particulars: IC50 range class; read-out: Inhibitor Activity vs Aurora-A. The protocol: as §1
The 384-well basic Flashplate® and the γ-^33P-ATP were obtained from PerkinElmer Life Sciences, Boston, Mass.
as §2
Full experimental procedure for this assay can be found within the following reference: Sun, C Journal of Biomolecular Screening 9(5), 2004, 391.

Sequence of Aurora-B (Q96GD4 whole entry): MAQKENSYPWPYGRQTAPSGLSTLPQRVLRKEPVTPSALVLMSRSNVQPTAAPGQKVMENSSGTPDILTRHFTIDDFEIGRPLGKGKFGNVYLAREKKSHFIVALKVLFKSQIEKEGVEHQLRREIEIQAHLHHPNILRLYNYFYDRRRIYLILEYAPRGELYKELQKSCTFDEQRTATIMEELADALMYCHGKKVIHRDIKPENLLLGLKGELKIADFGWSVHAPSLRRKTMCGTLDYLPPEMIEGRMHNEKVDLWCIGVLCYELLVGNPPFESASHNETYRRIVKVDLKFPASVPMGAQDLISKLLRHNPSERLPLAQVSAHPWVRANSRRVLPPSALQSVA

For the compound `COc1cc2c(Oc3ccc(NC(=O)c4ccc(Cl)cc4)cc3)ccnc2cc1OCC[C@H](N)C(=O)O` [Example 67, (S)-2-Amino-4-{4-[4-(4-chloro-benzoylamino)-phenoxy]-6-methoxy-quinolin-7-yloxy}-butyric acid], the IC50 on Aurora-B and at Aurora-A was less than 2000 nM throughout.
Regarding `COc1cc2c(Oc3ccc(NC(=O)c4cc(C(F)(F)F)ccc4F)cc3)ccnc2cc1OCC[C@H](N)C(=O)O` [Example 69, (S)-2-Amino-4-{4-[4-(2-fluoro-5-trifluoromethyl-benzoylamino)-phenoxy]-6-methoxy-quinolin-7-yloxy}-butyric acid], the IC50 is less than 2000 nM at Aurora-B and 2000 to 5000 nM at Aurora-A.
On the same counts, the results for `COc1cc2c(Oc3ccc(NC(=O)c4cccs4)cc3)ccnc2cc1OCC[C@H](N)C(=O)O` [Example 76, (S)-2-Amino-4-(6-methoxy-4-{4-[(thiophene-2-carbonyl)-amino]-phenoxy}-quinolin-7-yloxy)-butyric acid] are less than 2000 nM and less than 2000 nM.
Consider `COc1cc2c(Oc3ccc(C(=O)Nc4ccccc4)cc3)ccnc2cc1OCC[C@H](N)C(=O)O` [Example 78, (S)-2-Amino-4-[6-methoxy-4-(4-phenylcarbamoyl-phenoxy)-quinolin-7-yloxy]-butyric acid], for which the IC50 on Aurora-B and on Aurora-A was 2000 to 5000 nM each time.
As to `COc1cc2c(Oc3ccc(CC(=O)Nc4ccccc4)cc3)ccnc2cc1OCC[C@H](N)C(=O)O` [Example 81, (S)-2-Amino-4-[6-methoxy-4-(4-phenylcarbamoylmethyl-phenoxy)-quinolin-7-yloxy]-butyric acid], the IC50 at Aurora-B and on Aurora-A was 2000 to 5000 nM each time.
On to `COc1cc2c(Oc3ccc(CC(=O)Nc4ccccc4F)cc3)ccnc2cc1OCC[C@H](N)C(=O)O` [Example 83, (S)-2-Amino-4-(4-{4-[(2-fluoro-phenylcarbamoyl)-methyl]-phenoxy}-6-methoxy-quinolin-7-yloxy)-butyric acid], for which the IC50 was less than 2000 nM at Aurora-B and 2000 to 5000 nM on Aurora-A.
The matching figures for `COc1cc2c(Oc3ccc(CC(=O)Nc4cccc(F)c4)cc3)ccnc2cc1OCC[C@H](N)C(=O)O` [Example 85, (S)-2-Amino-4-(4-{4-[(3-fluoro-phenylcarbamoyl)-methyl]-phenoxy}-6-methoxy-quinolin-7-yloxy)-butyric acid]: less than 2000 nM and 2000 to 5000 nM.
`COc1cc2c(Oc3ccc(CC(=O)Nc4ccc(F)cc4)cc3)ccnc2cc1OCC[C@H](N)C(=O)O` [Example 87, (S)-2-Amino-4-(4-{4-[(4-fluoro-phenylcarbamoyl)-methyl]-phenoxy}-6-methoxy-quinolin-7-yloxy)-butyric acid]: the IC50 on Aurora-B was less than 2000 nM; at Aurora-A, more than 5000 nM.
On the same counts, the results for `COc1cc2c(Oc3ccc(CC(=O)Nc4ccc(F)cc4F)cc3)ccnc2cc1OCC[C@H](N)C(=O)O` [Example 89, (S)-2-Amino-4-(4-{4-[(2,4-difluoro-phenylcarbamoyl)-methyl]-phenoxy}-6-methoxy-quinolin-7-yloxy)-butyric acid] are less than 2000 nM and more than 5000 nM.
On the same counts, the results for `COc1ccc(NC(=O)Cc2ccc(Oc3ccnc4cc(OCC[C@H](N)C(=O)O)c(OC)cc34)cc2)cc1` [Example 91, (S)-2-Amino-4-(6-methoxy-4-{4-[(4-methoxy-phenylcarbamoyl)-methyl]-phenoxy}-quinolin-7-yloxy)-butyric acid] are less than 2000 nM and 2000 to 5000 nM.
On the same counts, the results for `COc1cc2c(Oc3ccc(NC(=O)Nc4ccc(C(F)(F)F)cc4)cc3)ccnc2cc1OCC[C@H](N)C(=O)O` [Example 94, (S)-2-Amino-4-(6-methoxy-4-{4-[3-(4-trifluoromethyl-phenyl)-ureido]-phenoxy}-quinolin-7-yloxy)-butyric acid] are less than 2000 nM and less than 2000 nM.

Values taken from US8148531B2 (Chroma Therapeutics Ltd., priority 2005, dated 2012).
